Patent US5922740A, “Heterocyclylcarbonyl substituted benzofuranyl-ureas” (Bayer Aktiengesellschaft, priority 1995, dated 1999)

Legend:
[1] = test system: human monocytes; experiment: Endotoxin induced TNF release; assay type: cell-based; conditions: LPS 2 μg ml^-1, 18 to 24 hours, ELISA
Method: 7. Preparation of Human Monocytes
Blood was taken from normal donors. Monocytes were isolated from peripheral blood by density centrifugation, followed by centrifugal elutriation.
8. Endotoxin Induced TNF Release
Monocytes (1×10^6 ml^-1) were stimulated with LPS (2 μg ml^-1) and coincubated with the compounds at different concentrations (10^-4 to 10 μg ml^-1) Compounds were dissolved in DMSO/medium (2% v/v). The cells were incubated in RPMI-1640 medium glutamine/FCS supplemented and at 37° C. in a humidified atmosphere with 5% CO2. After 18 to 24 hours TNF was determined in the supernatants by an human TNF specific ELISA (medgenix). Controls were nonstimulated and LPS stimulated monocytes without compounds. Example 2, 13 and 16 induce inhibition of LPS driven TNF activity in human monocytes (IC50 : 10^-3 to 1 μg ml^-1).

[2] = test system: B6D2F1 mice; experiment: Endotoxin induced shock lethality in mice; assay type: in vivo; conditions: galactosamine-sensitized mice, LPS 0.01 μg/mouse; compound intravenously 1 hour prior LPS, doses of 3 to 30 mg/kg
Method: 9. Endotoxin Induced Shock Lethality in Mice
B6D2F1 mice (n=10) were sensitized with galactosamine (600 mg/kg), and shock and lethality were triggered by LPS (0.01 μg/mouse). The compounds were administered intravenously 1 hour prior LPS. Controls were LPS challenged mice without compound. Mice were dying 8 to 24 hours post LPS challenge. Example 2, 13 and 16 reduced the endotoxin medicated mortality about 70% to 100% at doses of 3 to 30 mg/kg.

Row | Structure (SMILES) | IC50, inhibition of LPS driven TNF activity [1] | reduction of endotoxin mediated mortality [2]
1 | COc1ccc2c(NC(N)=O)c(C(=O)c3ccncc3)oc2c1 [Example 2] | 10^-3 to 1 μg ml^-1 | 70% to 100
2 | CC[n+]1ccc(C(=O)c2oc3cc(OC)ccc3c2NC(N)=O)cc1 [Example 13] | 10^-3 to 1 μg ml^-1 | 70% to 100
3 | Cc1ccc2c(NC(N)=O)c(C(=O)c3cccnc3)oc2c1 [Example 16] | 10^-3 to 1 μg ml^-1 | 70% to 100
